Results published in patent publication US9133240B2, “Compounds binding to the bacterial beta ring” (Centre National de la Recherche Scientifique, priority 2011, dated 2015).
Several values for one entry are separate records, joined by “and”; a condition that tells them apart may be missing. Identical values can stand only once. Square brackets hold non-standard residues; d marks the D form. Ends that are not written are not given here. Peptide text beside a SMILES is read from it. Phe(3,4-Cl2) = N[C@@H](Cc1ccc(Cl)c(Cl)c1)C(=O)O; Phe(4-Br) = N[C@@H](Cc1ccc(Br)cc1)C(=O)O; Phe(4-Cl) = N[C@@H](Cc1ccc(Cl)cc1)C(=O)O; Phe(4-Me) = Cc1ccc(C[C@H](N)C(=O)O)cc1; Cha = N[C@@H](CC1CCCCC1)C(=O)O

Legend:
[1] = target: T1, E. coli β clamp (Escherichia coli, UniProt P0A988); experiment: SPR competition assay: inhibition of P1-β interaction by challenging peptides; assay type: binding; conditions: for ΔG: ΔG = −RT ln Ki; for Ki (10^6 M^−1): Ki = (1 + KA[β])/IC50;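 on all read-outs here: SPR responses corrected for background, then fitted with a 1:1 Langmuir binding model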
T1 construct: made in house; host or cells: E. coli BL21 (β); P1 by solid-phase synthesis
T1 sequence (P0A988 whole entry): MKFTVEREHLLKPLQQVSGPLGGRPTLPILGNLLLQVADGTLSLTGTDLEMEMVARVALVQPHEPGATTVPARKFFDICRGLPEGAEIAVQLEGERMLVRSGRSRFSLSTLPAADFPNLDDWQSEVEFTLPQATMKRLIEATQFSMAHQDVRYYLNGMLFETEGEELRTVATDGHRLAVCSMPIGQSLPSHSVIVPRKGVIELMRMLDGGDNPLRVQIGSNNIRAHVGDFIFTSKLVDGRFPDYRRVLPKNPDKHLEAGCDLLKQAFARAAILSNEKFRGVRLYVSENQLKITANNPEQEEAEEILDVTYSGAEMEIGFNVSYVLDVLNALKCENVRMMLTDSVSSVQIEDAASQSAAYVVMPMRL
Protocol: SPR experiments were performed on a Biacore® 3000. […] After subtraction of the background response, the data were fit to the 1:1 Langmuir model using BIAevaluation (Biacore™). […] IC50 values for each challenging peptide were determined by plotting the concentration of peptide against the percentage of binding inhibition. The IC50 value of each peptide was used to calculate Ki (Ki=(1+KA[β])/IC50) which measures the affinity of the challenging peptide for β in the competition assay, and AG was derived from Ki (ΔG=RT ln Ki).

[2] = target: T2, β ring (Escherichia coli, UniProt P0A988); experiment: Isothermal titration calorimetry (ITC) of peptides into β ring solution; assay type: binding, E. coli; conditions: for N: number of binding sites per β monomer / ΔG / Kd / ΔS (cal/mol/deg): ITC; for ΔG: ΔG = ΔH-TΔS; for ΔΔG (Kcal/mol) = ΔGj − ΔGi, reference i = P7: compared to P7; for ΔΔG (Kcal/mol) = ΔGj − ΔGi, reference i = P11: compared to P11; for ΔΔG (Kcal/mol) = ΔGj − ΔGi, reference i = P13: compared to P13
T2 construct: made in house; host or cells: E. coli BL21
Protocol: ITC was performed by using a ITC200 microcalorimeter from MicroCal. Peptides (400 μM) were titrated in sequential injections (2 μl each) into a β ring solution (300 μl, 20 or 30 μM) at 25° C. Data were corrected from control experiments where peptides were injected in buffer solution (Hepes 10 mM pH 7.4, NaCl 0.15M, EDTA 3 mM, P20 0.005%). Data analysis was performed with Origin 7.0 software.
Target sequence in this assay (P0A988 whole entry): as above

[3] = target: T2, β ring; experiment: IC50 SPR (μM)
Source text: Table printed on a drawing sheet, Figure 4
Head of the field: IC50 SPR (μM)
The patent's description of the figure: FIG. 4: Polymerase competition assay. […] Grey: biochemical assay, black: SPR assay. P15 sequence is Ac-RQLVLF, (SEQ ID No: 15), Scr: scrambled peptide: Ac-ChaFQLD, (SEQ ID No: 33).
First copying reader's note: The biochemical assay row is printed with decimal commas and the SPR row with decimal points.
Where the first naming reader finds the target: passage: the relative affinity of two compounds for the β ring is not dependent from the technique used for measuring said affinities (FIG. 4B)
Target sequence in this assay (P0A988 whole entry, looked up): as the sequence (P0A988 whole entry) above

[4] = peptide 400 μM, β 20 or 30 μM, 25° C
[5] = IC50 (μM), SPR, inhibition of binding of β ring (0.25 μM) to immobilized P1
[6] = Kd (nM), peptide 400 μM, β 20 or 30 μM, 25° C

CC(=O)N[C@@H](CCC(N)=O)C(=O)N[C@@H](CC(C)C)C(=O)N[C@@H](CC(=O)O)C(=O)N[C@@H](CC(C)C)C(=O)N[C@@H](Cc1ccccc1)C(=O)O [Peptide P6, Ac-Gln-Leu-Asp-Leu-Phe-OH]
ΔG ([1]; SPR): -8.22 kcal/mol | N: number of binding sites per β monomer [2, 4]: 1.11 and 1.14

CC(=O)N[C@@H](CCC(N)=O)C(=O)N[C@@H](CC1CCCCC1)C(=O)N[C@@H](CC(=O)O)C(=O)N[C@@H](CC(C)C)C(=O)N[C@@H](Cc1ccccc1)C(=O)O [Peptide P7, Ac-Gln-Cha-Asp-Leu-Phe-OH] (Ac-Q[Cha]DLF-OH)
Ki [1]: 170 nM | IC50 [1, 5]: 0.17 µM | fold decrease in affinity compared to P14 ([1]; SPR): 2 fold | fold increase in interaction/affinity compared to P6 ([1]; SPR): 6 fold | Ki (10^6 M^−1) ([1]; SPR): 8.01 10^6 M^−1 | ΔG ([1]; SPR): -9.42 kcal/mol | ΔG ([2]; 25° C): -8.9 kcal/mol | N: number of binding sites per β monomer [2, 4]: 0.74 and 0.76 | ΔΔG (Kcal/mol) = ΔGj − ΔGi, reference i = P6 ([2]; from ITC data, compared to P6): -0.66 kcal/mol

CC(=O)N[C@@H](CCC(N)=O)C(=O)N[C@@H](CC1CCCCC1)C(=O)N[C@@H](CC(=O)O)C(=O)N[C@@H](CC(C)C)C(=O)N[C@@H](Cc1ccc(C)cc1)C(=O)O [Peptide P11, Ac-Gln-Cha-Asp-Leu-pMePhe-OH] (Ac-Q[Cha]DL[Phe(4-Me)]-OH)
IC50 [1, 5]: 0.26 µM | Ki (10^6 M^−1) ([1]; SPR): 8.43 10^6 M^−1 | ΔG ([1]; SPR): -9.44 kcal/mol | ΔG ([2]; 25° C): -8.6 kcal/mol | N: number of binding sites per β monomer [2, 4]: 0.95 | ΔΔG (Kcal/mol) = ΔGj − ΔGi, reference i = P7 ([2]; from ITC data): +0.25 Kcal/mol

CC(=O)N[C@@H](CCC(N)=O)C(=O)N[C@@H](CC1CCCCC1)C(=O)N[C@@H](CC(=O)O)C(=O)N[C@@H](CC(C)C)C(=O)N[C@@H](Cc1ccc(Cl)cc1)C(=O)O [Peptide P12, Ac-Gln-Cha-Asp-Leu-pClPhe-OH] (Ac-Q[Cha]DL[Phe(4-Cl)]-OH)
IC50 [1, 5]: 0.16 µM | Ki (10^6 M^−1) ([1]; SPR): 13.7 10^6 M^−1 | ΔG ([1]; SPR): -9.73 kcal/mol | N: number of binding sites per β monomer [2, 4]: 1.02 and 1.06 | ΔΔG (Kcal/mol) = ΔGj − ΔGi, reference i = P7 ([2]; from ITC data): -0.6 kcal/mol | ΔΔG (Kcal/mol) = ΔGj − ΔGi, reference i = P11 ([2]; from ITC data): -0.85 kcal/mol | ΔΔG (Kcal/mol) = ΔGj − ΔGi, reference i = P13 ([2]; from ITC data): -0.32 kcal/mol

CC(=O)N[C@@H](CCC(N)=O)C(=O)N[C@@H](CC1CCCCC1)C(=O)N[C@@H](CC(=O)O)C(=O)N[C@@H](CC(C)C)C(=O)N[C@@H](Cc1ccc(Br)cc1)C(=O)O [Peptide P13, Ac-Gln-Cha-Asp-Leu-pBrPhe-OH] (Ac-Q[Cha]DL[Phe(4-Br)]-OH)
IC50 [1, 5]: 0.096 µM | Ki (10^6 M^−1) ([1]; SPR): 13.49 10^6 M^−1 | ΔG ([1]; SPR): -9.71 kcal/mol | N: number of binding sites per β monomer [2, 4]: 0.85 and 0.83 | ΔΔG (Kcal/mol) = ΔGj − ΔGi, reference i = P7 ([2]; from ITC data): -0.28 kcal/mol | ΔΔG (Kcal/mol) = ΔGj − ΔGi, reference i = P11 ([2]; from ITC data): -0.53 kcal/mol

CC(=O)N[C@@H](CCC(N)=O)C(=O)N[C@@H](CC1CCCCC1)C(=O)N[C@@H](CC(=O)O)C(=O)N[C@@H](CC(C)C)C(=O)N[C@@H](Cc1ccc(Cl)c(Cl)c1)C(=O)O [Peptide P14, Ac-Gln-Cha-Asp-Leu-(3,4-di-Cl)Phe-OH] (Ac-Q[Cha]DL[Phe(3,4-Cl2)]-OH)
fold increase compared to the full PolIV enzyme [1]: 4 fold | IC50 [1, 5]: 0.077 µM | IC50 ([1]; IC50 SPR (nM), SPR): 0.07 µM | fold increase in interaction/affinity compared to P6 ([1]; SPR): 15 fold | fold increase compared to P1 ([1]; SPR IC50): 115 fold | Ki (10^6 M^−1) ([1]; SPR): 17 10^6 M^−1 | ΔG ([1]; SPR): -9.85 kcal/mol | N: number of binding sites per β monomer [2, 4]: 0.91 and 0.90 | Kd [2, 6]: ~60 nM | ΔΔG (Kcal/mol) = ΔGj − ΔGi, reference i = P7 ([2]; from ITC data): -0.8 kcal/mol | ΔΔG (Kcal/mol) = ΔGj − ΔGi, reference i = P11 ([2]; from ITC data): -1.05 kcal/mol | ΔΔG (Kcal/mol) = ΔGj − ΔGi, reference i = P12 ([2]; from ITC data, compared to P12): -0.2 kcal/mol | ΔΔG (Kcal/mol) = ΔGj − ΔGi, reference i = P13 ([2]; from ITC data): -0.52 kcal/mol

CC(=O)N[C@@H](CCC(N)=O)C(=O)N[C@@H](CC1CCCCC1)C(=O)N[C@@H](CC(=O)O)C(=O)N[C@@H](CC(C)C)C(=O)N[C@@H](Cc1c[nH]c2ccccc12)C(=O)O [Peptide P21, Ac-Q Cha DLW] (Ac-Q[Cha]DLW-OH; C-terminus assumed)
IC50 [1, 5]: 0.64 µM

Ac-RQLVLF [Peptide P15, Ac-RQLVLF]
IC50 [3]: 1910 nM

H-RQLVFL-OH [Peptide P4, H-Arg-Gln-Leu-Val-Phe-Leu-OH]
IC50 [1, 5]: 256 µM

H-RQLVLF-OH [Peptide P3, H-Arg-Gln-Leu-Val-Leu-Phe-OH]
IC50 [1, 5]: 8.62 µM | Ki (10^6 M^−1) ([1]; SPR): 0.15 10^6 M^−1 | ΔG ([1]; SPR): -7.04 kcal/mol | ΔS (cal/mol/deg) ([2]; 25° C): 6.05 cal/mol/deg and 6.6 cal/mol/deg | N: number of binding sites per β monomer [2, 4]: 1.54 and 1.45 | Kd [2, 6]: 2820 nM and 2320 nM

H-RQLVLGL-OH [Peptide P1, H-Arg-Gln-Leu-Val-Leu-Gly-Leu-OH, reference compound]
IC50 [1, 5]: 8.85 µM | fold less efficient binding to the ring compared to the whole polymerase PolIV ([1]; SPR): 30 fold | Ki (10^6 M^−1) ([1]; SPR): 0.15 10^6 M^−1 | ΔG ([1]; SPR): -7.06 kcal/mol | ΔS (cal/mol/deg) ([2]; 25° C): 12.8 cal/mol/deg and 7.6 cal/mol/deg | N: number of binding sites per β monomer [2, 4]: 1.33 and 1.31 | Kd ([2]; affinity (ITC)): 1000 to 2000 nM

H-RQLVLL-OH [Peptide P2, H-Arg-Gln-Leu-Val-Leu-Leu-OH]
IC50 [1, 5]: 21.5 µM | Ki (10^6 M^−1) ([1]; SPR): 0.0063 10^6 M^−1 | ΔG ([1]; SPR): -6.54 kcal/mol
